The target of test [1] is hα9α10 nAChR (Homo sapiens, UniProt Q9GZZ6+Q9UGM1). Put plainly: cell-based. Particulars: for IC50: IC50, inhibition of ACh-evoked currents at hα9α10 nAChRs.
The target of test [2] is hα3β2 nAChR (Homo sapiens, UniProt P17787+P32297). Put plainly: cell-based.
Test [3] deals with hα4β4 nAChR (Homo sapiens, UniProt P30926+P43681). The class given is cell-based.
For test [4], the target named is hα4β2 nAChR (Homo sapiens, UniProt P17787+P43681). The class given is cell-based.
Sequence of hα4β2 nAChR (P43681 29-627 limits assumed): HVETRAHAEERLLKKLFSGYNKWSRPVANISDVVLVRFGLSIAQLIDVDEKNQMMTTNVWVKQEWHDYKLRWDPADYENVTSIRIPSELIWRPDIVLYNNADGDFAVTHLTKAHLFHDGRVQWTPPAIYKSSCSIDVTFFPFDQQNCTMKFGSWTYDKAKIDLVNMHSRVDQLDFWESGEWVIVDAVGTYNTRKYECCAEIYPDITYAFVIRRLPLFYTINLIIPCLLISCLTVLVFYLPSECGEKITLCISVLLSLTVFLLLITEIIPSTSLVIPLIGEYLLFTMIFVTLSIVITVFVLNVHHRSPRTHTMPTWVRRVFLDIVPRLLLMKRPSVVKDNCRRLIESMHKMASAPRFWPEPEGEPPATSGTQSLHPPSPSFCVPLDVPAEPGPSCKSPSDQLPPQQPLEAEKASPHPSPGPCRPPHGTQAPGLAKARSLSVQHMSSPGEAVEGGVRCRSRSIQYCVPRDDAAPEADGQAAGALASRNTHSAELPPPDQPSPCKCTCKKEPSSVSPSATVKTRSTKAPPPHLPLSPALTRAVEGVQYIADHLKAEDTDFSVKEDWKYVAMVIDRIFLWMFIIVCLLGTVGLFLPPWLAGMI
Sequence of hα4β2 nAChR (P17787 26-502 limits assumed): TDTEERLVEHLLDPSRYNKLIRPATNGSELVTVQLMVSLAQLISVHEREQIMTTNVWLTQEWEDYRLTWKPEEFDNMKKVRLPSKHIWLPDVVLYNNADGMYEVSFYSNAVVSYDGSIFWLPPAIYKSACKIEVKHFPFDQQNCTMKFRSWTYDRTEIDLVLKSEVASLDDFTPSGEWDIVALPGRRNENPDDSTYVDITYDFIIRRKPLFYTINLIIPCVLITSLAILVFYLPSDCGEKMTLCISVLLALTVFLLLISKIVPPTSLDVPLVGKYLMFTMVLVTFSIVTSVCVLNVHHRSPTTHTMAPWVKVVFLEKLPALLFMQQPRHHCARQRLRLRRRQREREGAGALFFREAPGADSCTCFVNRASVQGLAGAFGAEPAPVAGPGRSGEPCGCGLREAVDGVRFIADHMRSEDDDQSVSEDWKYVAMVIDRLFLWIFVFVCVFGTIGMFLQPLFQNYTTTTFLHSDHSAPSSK
Test [5] concerns the target hα3β4 nAChR (Homo sapiens, UniProt P30926+P32297). The class given is cell-based.
Test [6] has as its target hα7 nAChR (Homo sapiens, UniProt P36544). Put plainly: cell-based.

The structures appear in SMILES notation. Values joined by “and” are separate entries in the source; they are usually repeats but may differ in a detail not shown here. Equal values may be shown once. Where a SMILES comes first, the peptide text is derived from it. Bridges are numbered along the chain shown (N, C = ends). [ ]: non-standard residue; d: D form. Dab = NCC[C@H](N)C(=O)O; Dap = NC[C@H](N)C(=O)O

Sequence of hα9α10 nAChR (Q9UGM1 26-479 limits assumed): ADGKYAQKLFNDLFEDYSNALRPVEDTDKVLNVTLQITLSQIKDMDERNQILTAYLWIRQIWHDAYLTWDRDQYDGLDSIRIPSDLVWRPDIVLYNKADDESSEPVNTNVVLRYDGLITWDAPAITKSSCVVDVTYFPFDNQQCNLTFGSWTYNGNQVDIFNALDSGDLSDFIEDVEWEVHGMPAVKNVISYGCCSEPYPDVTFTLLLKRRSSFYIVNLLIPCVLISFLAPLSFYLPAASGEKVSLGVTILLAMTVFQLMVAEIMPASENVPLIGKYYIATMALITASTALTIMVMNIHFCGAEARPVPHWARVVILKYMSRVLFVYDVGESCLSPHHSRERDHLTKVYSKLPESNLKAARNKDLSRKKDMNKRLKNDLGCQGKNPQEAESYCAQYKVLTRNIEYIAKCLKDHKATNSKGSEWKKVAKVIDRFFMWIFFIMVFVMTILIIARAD
Sequence of hα9α10 nAChR (Q9GZZ6 25-450 limits assumed): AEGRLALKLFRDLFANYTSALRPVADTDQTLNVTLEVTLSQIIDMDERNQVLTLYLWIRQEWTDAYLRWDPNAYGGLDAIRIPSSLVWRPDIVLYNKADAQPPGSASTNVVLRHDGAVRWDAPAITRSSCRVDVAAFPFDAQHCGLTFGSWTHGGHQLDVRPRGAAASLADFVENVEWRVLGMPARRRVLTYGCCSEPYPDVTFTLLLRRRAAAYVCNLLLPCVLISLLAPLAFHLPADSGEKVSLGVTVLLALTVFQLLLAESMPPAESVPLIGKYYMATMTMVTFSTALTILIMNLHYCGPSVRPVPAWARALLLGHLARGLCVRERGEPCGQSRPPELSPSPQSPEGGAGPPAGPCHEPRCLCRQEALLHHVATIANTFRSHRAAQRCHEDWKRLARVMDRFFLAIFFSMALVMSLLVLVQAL
Sequence of hα3β2 nAChR (P32297 32-505 limits assumed): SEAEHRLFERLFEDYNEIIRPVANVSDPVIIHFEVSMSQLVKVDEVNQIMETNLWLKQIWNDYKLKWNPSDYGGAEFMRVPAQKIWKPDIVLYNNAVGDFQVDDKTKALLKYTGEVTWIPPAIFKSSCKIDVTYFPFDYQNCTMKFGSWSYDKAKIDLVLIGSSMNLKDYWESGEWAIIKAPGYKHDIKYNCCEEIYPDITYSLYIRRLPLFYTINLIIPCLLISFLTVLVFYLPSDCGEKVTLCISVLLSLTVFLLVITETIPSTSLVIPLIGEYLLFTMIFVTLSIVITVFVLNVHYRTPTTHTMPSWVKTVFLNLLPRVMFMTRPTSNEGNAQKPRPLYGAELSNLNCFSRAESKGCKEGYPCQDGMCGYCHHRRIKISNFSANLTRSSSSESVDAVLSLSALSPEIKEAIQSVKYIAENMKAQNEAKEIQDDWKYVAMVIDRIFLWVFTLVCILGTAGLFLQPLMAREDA
Sequence of hα3β2 nAChR (P17787 26-502 limits assumed): as the sequence (P17787 26-502 limits assumed) above
Sequence of hα3β4 nAChR (P32297 32-505 limits assumed): as the sequence (P32297 32-505 limits assumed) above
Sequence of hα3β4 nAChR (P30926 22-498 limits assumed): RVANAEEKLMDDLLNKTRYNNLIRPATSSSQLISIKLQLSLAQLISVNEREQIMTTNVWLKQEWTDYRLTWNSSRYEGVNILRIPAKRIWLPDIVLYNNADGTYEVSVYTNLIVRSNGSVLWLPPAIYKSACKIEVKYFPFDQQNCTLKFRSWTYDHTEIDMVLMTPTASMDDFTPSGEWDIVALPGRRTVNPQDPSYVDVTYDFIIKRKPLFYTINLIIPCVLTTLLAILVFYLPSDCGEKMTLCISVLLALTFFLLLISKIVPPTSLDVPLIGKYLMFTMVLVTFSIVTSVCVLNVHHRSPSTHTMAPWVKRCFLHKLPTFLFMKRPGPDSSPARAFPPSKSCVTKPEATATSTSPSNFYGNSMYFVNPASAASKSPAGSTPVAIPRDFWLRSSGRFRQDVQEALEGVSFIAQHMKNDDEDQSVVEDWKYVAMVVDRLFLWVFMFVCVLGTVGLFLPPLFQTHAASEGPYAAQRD
Sequence of hα7 nAChR (P36544 23-502 limits assumed): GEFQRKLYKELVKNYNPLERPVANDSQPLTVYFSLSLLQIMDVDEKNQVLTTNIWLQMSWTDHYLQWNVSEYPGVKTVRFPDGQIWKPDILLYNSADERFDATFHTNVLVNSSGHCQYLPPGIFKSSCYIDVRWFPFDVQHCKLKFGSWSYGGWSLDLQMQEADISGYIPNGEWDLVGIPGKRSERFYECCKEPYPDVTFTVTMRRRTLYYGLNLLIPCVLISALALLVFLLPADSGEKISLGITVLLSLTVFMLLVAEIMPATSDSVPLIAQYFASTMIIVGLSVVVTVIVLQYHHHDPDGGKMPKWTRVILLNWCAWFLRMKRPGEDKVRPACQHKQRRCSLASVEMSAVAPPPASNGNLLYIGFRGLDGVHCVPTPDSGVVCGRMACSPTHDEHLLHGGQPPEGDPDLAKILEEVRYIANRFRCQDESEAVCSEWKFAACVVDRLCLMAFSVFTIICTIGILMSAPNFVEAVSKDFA
Sequence of hα4β4 nAChR (P43681 29-627 limits assumed): as the sequence (P43681 29-627 limits assumed) above
Sequence of hα4β4 nAChR (P30926 22-498 limits assumed): as the sequence (P30926 22-498 limits assumed) above

The IC50 is the midpoint of a concentration-inhibition curve. A low value points to greater potency in that assay. As for `CC(C)C[C@@H]1NC(=O)[C@H](CCC(=O)O)NC(=O)[C@@H]2CCCN2C(=O)[C@H](Cc2c[nH]cn2)NC(=O)[C@H](CC(N)=O)NC(=O)[C@H](C(C)C)NC(=O)[C@H](CN)NC(=O)[C@@H]2CSSC[C@H](NC(=O)CN)C(=O)N[C@@H](CSSC[C@@H](C(N)=O)NC1=O)C(=O)N[C@@H](CO)C(=O)N[C@@H](Cc1c[nH]cn1)C(=O)N1CCC[C@H]1C(=O)N[C@@H](C)C(=O)N2` [PeIA[S9Dap]] (H-GCCSHPAC[Dap]VNHPELC-NH2; disulfide 2-8, 3-16), in test [1], the “Enhancement of activity (IC50) at hα9α10 relative to PeIA” value is approximately 5 fold and the midpoint of inhibition, the IC50, lay at 4.67 nM.

In the case of `CC(C)C[C@@H]1NC(=O)[C@H](CCC(=O)O)NC(=O)[C@@H]2CCCN2C(=O)[C@H](Cc2c[nH]cn2)NC(=O)[C@H](CC(N)=O)NC(=O)[C@H](C(C)C)NC(=O)[C@H](CO)NC(=O)[C@@H]2CSSC[C@H](NC(=O)CN)C(=O)N[C@@H](CSSC[C@@H](C(N)=O)NC1=O)C(=O)N[C@@H](CN)C(=O)N[C@@H](Cc1c[nH]cn1)C(=O)N1CCC[C@H]1C(=O)N[C@@H](C)C(=O)N2` [PeIA[S4Dap]] (H-GCC[Dap]HPACSVNHPELC-NH2; disulfide 2-8, 3-16), in test [1], the “Enhancement of activity (IC50) at hα9α10 relative to PeIA” value was approximately 13 fold and the IC50 worked out at 1.74 nM.

As for `CC(C)C[C@@H]1NC(=O)[C@H](CCC(=O)O)NC(=O)[C@@H]2CCCN2C(=O)[C@H](Cc2c[nH]cn2)NC(=O)[C@H](CC(N)=O)NC(=O)[C@H](C(C)C)NC(=O)[C@H](CO)NC(=O)[C@@H]2CSSC[C@H](NC(=O)CN)C(=O)N[C@@H](CSSC[C@@H](C(N)=O)NC1=O)C(=O)N[C@@H](CCN)C(=O)N[C@@H](Cc1c[nH]cn1)C(=O)N1CCC[C@H]1C(=O)N[C@@H](C)C(=O)N2` [PeIA[S4Dab]] (H-GCC[Dab]HPACSVNHPELC-NH2; disulfide 2-8, 3-16), in test [1], the “Enhancement of activity (IC50) at hα9α10 relative to PeIA” value is ~ 4 fold; the 50% inhibitory concentration (IC50) was 5.32 nM and 5.3 nM.

As for `CC(C)C[C@@H]1NC(=O)[C@H](CCC(=O)O)NC(=O)[C@@H]2CCCN2C(=O)[C@H](Cc2cnc[nH]2)NC(=O)[C@H](CC(N)=O)NC(=O)[C@H](C(C)C)NC(=O)[C@H](CO)NC(=O)[C@@H]2CSSC[C@H](NC(=O)CN)C(=O)N[C@@H](CSSC[C@@H](C(N)=O)NC1=O)C(=O)N[C@@H](CO)C(=O)N[C@@H](Cc1cnc[nH]1)C(=O)N1CCC[C@H]1C(=O)N[C@@H](C)C(=O)N2` [PeIA] (H-GCCSHPACSVNHPELC-NH2; disulfide 2-8, 3-16), in test [2], the midpoint of inhibition, the IC50, lay at 59.8 nM.

`CC(C)C[C@@H]1NC(=O)[C@H](CCC(=O)O)NC(=O)[C@@H]2CCCN2C(=O)[C@H](Cc2c[nH]cn2)NC(=O)[C@H](CC(N)=O)NC(=O)[C@H](C(C)C)NC(=O)[C@H](CO)NC(=O)[C@@H]2CSSC[C@H](NC(=O)CN)C(=O)N[C@@H](CSSC[C@@H](C(N)=O)NC1=O)C(=O)N[C@@H](CO)C(=O)N[C@@H](Cc1c[nH]cn1)C(=O)N1CCC[C@H]1C(=O)N[C@@H](C)C(=O)N2` [PeIA] (H-GCCSHPACSVNHPELC-NH2; disulfide 2-8, 3-16): in test [3], the “Inhibition of ACh-evoked currents at hα4β4” value was less than 1%. Also, in test [4], the “Inhibition of ACh-evoked currents at hα4β2” value was less than 1%. The “Inhibition of ACh-evoked currents at hα3β4” value in test [5] is less than 1%.

In turn, `CC(C)C[C@@H]1NC(=O)[C@H](CCC(=O)O)NC(=O)[C@@H]2CCCN2C(=O)[C@H](Cc2c[nH]cn2)NC(=O)[C@H](CC(N)=O)NC(=O)[C@H](C(C)C)NC(=O)[C@H](CN)NC(=O)[C@@H]2CSSC[C@H](NC(=O)CN)C(=O)N[C@@H](CSSC[C@@H](C(N)=O)NC1=O)C(=O)N[C@@H](CN)C(=O)N[C@@H](Cc1c[nH]cn1)C(=O)N1CCC[C@H]1C(=O)N[C@@H](C)C(=O)N2` [PeIA[S4Dap, S9Dap]] (H-GCC[Dap]HPAC[Dap]VNHPELC-NH2; disulfide 2-8, 3-16) gave an IC50 in test [2] of 32.8 nM. In test [6], this molecule showed an IC50 of 162 nM. Further, in test [1], the “Enhancement of activity (IC50) at hα9α10 relative to PeIA” value was approximately 24 fold, the “Potency at hα9α10 relative to dimeric PeIA” value is “approximately two-fold” and it took 0.93 nM to reach half-maximal inhibition (IC50).
